# Experimental data from article PMC10223120, “α-Viniferin-Induced Apoptosis through Downregulation of SIRT1 in Non-Small Cell Lung Cancer Cells” (Pharmaceuticals, 2023).
# Columns and labels:
# [1] = tested on: human SIRT1 enzyme; design: method as in doi:10.1177/1934578X1801301130; settings: cited from earlier work
# [2] = tested on: NCI-H460 cells; assay: MTT cell viability assay, NCI-H460 cells; type: cell-based, human
# Description: (§1) The Bioresource Collection and Research Center (BCRC) in Hsinchu, Taiwan provided the NCI-H460 and A549 cell lines, which were cultured in DMEM supplemented with 10% FBS, 100 U/mL penicillin A, and 100 U/mL streptomycin. These cells were kept at a temperature of 37 °C with 5% CO2 and a humidified air environment.
# (§2) To investigate the impact of α-viniferin (0–50 μM), ε-viniferin (0–50 μM), and signal transduction inhibitors (20 μM PD98059, 10 μM SB431542, 20 μM SP600125, 20 μΜ LY294002, 10 μM BIRB796, or 10 μM GO6976) on the viability of NCI-H460 or A549 cells were investigated using MTT assay. NCI-H460 or A549 cells were treated with various concentrations of α-viniferin, ε-viniferin, and signal transduction inhibitors and were incubated for 24, 48, or 72 h. Following incubation, 5 mg/mL MTT solution in phosphate-buffered saline (PBS) was added to each well, and the plate was further incubated for 4 h at 37 °C. Following this, the medium was aspirated, and DMSO was utilized to dissolve the MTT-formazan crystals. Finally, the solution was analyzed using a microplate reader at a wavelength of 540 nm.
# [3] = tested on: NSCLC cells; design: method as in PMID 35684095; settings: cited from earlier work
# [4] = tested on: NCI-H460 cells; assay: Annexin V/7-AAD double staining, flow cytometry; type: cell-based, human; settings: 24 h, control 5.3%
# Description: To investigate the molecular mechanism by which α-viniferin affects NCI-H460 cells, the presence of apoptotic and necrotic cells was analyzed using double staining with annexin V and 7-aminoactinomycin D (7-AAD). Annexin V, which binds to phosphatidylserine (PS), is used as a marker of early-stage apoptosis. The 7-ADD is a fluorescent DNA dye that is excluded from viable cells with intact membranes but can penetrate the plasma membrane of apoptotic and necrotic cells. Double staining with both annexin V and 7-AAD can differentiate between cells in different stages of apoptosis and necrosis. Specifically, cells that are annexin V+/7-AAD- are in early apoptosis, cells that are annexin V+/7-AAD+ are in late apoptosis, and cells that are annexin V-/7-AAD+ are in necrosis. Cells that are annexin V-/7-AAD- are considered viable. […] These findings implied dose-dependent induction of apoptosis by α-viniferin in NCI-H460 cells. The mechanism behind α-viniferin-induced apoptosis in NCI-H460 cells merits further investigation.
# The annexin V and 7-ADD double staining was utilized to detect apoptotic and necrotic cells. NCI-H460 cells were treated with α-viniferin at various concentrations (0, 5, 10, 20, and 30 μM) for 24 h. Following treatment, the cells were collected by trypsinization and suspended in a warm medium. The cells in a suspension were centrifuged at 2000× g for 5 min, and the resulting supernatant was removed, leaving the cell pellets. The pellets were subsequently resuspended in 200 µL of PBS and were fixed by adding […]. Next, the cell pellets that had been fixed were resuspended in 500 µL of 1 × annexin V-FITC Binding Buffer, to which 5 µL each of annexin V-FITC and 7-AAD staining reagents were added. The samples were then vortexed gently and incubated for 15 min at 4 °C in the dark. Finally, the samples were analyzed using a BD FACScan™ flow cytometer.
# [5] = Serum AST, CPK, LDH and creatinine in xenograft-bearing mice; type: in vivo, BALB/c nude mice; settings: 5 mg/kg i.p., five times every week, four weeks
# Description: (§3) The male BALB/c nude mice utilized in this investigation were obtained from the National Laboratory Animal Breeding and Research Center situated in Taiwan. All animal experimentation procedures were conducted in accordance with National Tsinghua University’s Institutional Animal Care and Use Committee Guidelines (Protocol No. 107049). For this study, the hind leg of five-week-old nude mice was subcutaneously implanted with 1 × 10^6 NCI-H460 cells. Treatment was initiated only after the tumors had grown to a volume of 100–200 mm^3. Subsequently, the nude mice with NCI-H460-cell xenografts were randomly allocated into two groups: experimental and control, each comprising five mice. The experimental group was administered 5 mg/kg α-viniferin through intraperitoneal injection five times every week, while the control group was administered PBS. After four weeks, the mice were euthanized. Tumor weight, vimentin expression, histopathological changes and apoptosis in the tumor section were evaluated using immunohistochemistry (IHC) staining, hematoxylin and eosin staining, and TUNEL assay. The quantification of AST, CPK, LDH, and creatinine levels was carried out following previously described procedures. Briefly, AST, LDH, CPK, and creatinine levels were quantified using commercial kits (Wako Pure Chemical Industries, Osaka, Japan).
# [6] = tested on: NCI-H460 cells; assay: Immunofluorescence assay of AIF localization (Hoechst 33258 nuclear stain); type: cell-based, human; settings: 5, 10, 15, 20, 30 μM, 24 h
# Description: The immunofluorescence assay was conducted following the method described in a previous study to detect the localization of AIF in NCI-H460 cells after treatment with α-viniferin at various concentrations (0, 5, 10, 15, 20, and 30 μM) for 24 h. After treatment, the cells in a 6-well plate were washed with PBS, and fixed immediately with 4% formaldehyde at room temperature for 15 min. Then, NCI-H460 cells were treated with 0.1% Triton X-100 in PBS at room temperature for 15 min to achieve permeabilization. After that, NCI-H460 cells were incubated with anti-AIF primary antibodies at 4 °C for 24 h, followed by incubation with secondary antibodies conjugated with fluorescein isothiocyanate at 37 °C for 1 h. To stain the cell nuclei, NCI-H460 cells were treated with a solution containing […] Hoechst 33,258 for 30 min. After washing the cells with PBS, they were mounted onto a glass slide for visualization. Confocal laser scanning microscopy was employed to capture the images. The mean fluorescence intensity, which represented the protein level, was analyzed using the Image J software.
# [7] = tested on: osteosarcoma cells (HOS); design: method as in PMID 34728247; settings: cited from earlier work
# [8] = tested on: osteosarcoma cells (U2OS); design: method as in PMID 34728247; settings: cited from earlier work
# [9] = tested on: A549 lung cancer cells; design: method as in PMID 34728247; settings: cited from earlier work
# [10] = tested on: NCI-H460-cell xenografts; assay: In vivo xenograft tumor growth experiment; design: species or system BALB/c nude mice
# Description: as §3
# [11] = tested on: NCI-H460 cells; assay: Western blot of apoptosis-related proteins; type: cell-based, human; settings: 10, 15, 20, 30 μM, 24 h
# Description: The western blot analysis was conducted to check the expression levels of cleaved caspase-3, cleaved PARP, SIRT1, vimentin, and AKT phosphorylation in NCI-H460 cells after treatment with α-viniferin at various concentrations (0, 10, 15, 20, and 30 μM) for 24 h. After treatment, the cells in a 10-cm plate were lysed in an ice-cold lysis buffer, containing protease and […] inhibitors. The Bio-Rad protein assay kit (Bio-Rad Laboratories, Hercules, CA, USA) was utilized to measure the protein concentration in each lysate. Equal amounts of protein (50 μg) were loaded onto each lane, separated using sodium dodecyl sulfate-polyacrylamide gel electrophoresis (SDS-PAGE), and subsequently transferred onto polyvinylidene fluoride (PVDF) membranes. First, the membranes were blocked using 1% BSA in PBS at room temperature for 1 h. Then, the membranes incubated with primary antibodies against full length caspase-3, activated caspase-3, full length PARP, cleaved PARP, SIRT1, vimentin, and AKT phosphorylation, and followed by secondary antibodies conjugated with horseradish peroxidase were added to the samples. Finally, the immunoreactive bands were visualized using an enhanced chemiluminescence (ECL) detection system.
# [12] = tested on: A549; design: method as in PMID 34728247; settings: A549 cells; cited from earlier work
# [13] = tested on: A549 cells; assay: MTT cell viability assay, A549 cells; type: cell-based, human; settings: low doses (20 μM)
# Description: as §1, §2
# [14] = 5 mg/kg i.p., five times every week, four weeks, compared with control
compound,measurement,setting,value
Oc1ccc([C@H]2Oc3cc(O)cc(/C=C/c4ccc5c(c4)[C@@H](c4cc(O)cc6c4[C@H](c4cc(O)cc(O)c4)[C@@H](c4ccc(O)cc4)O6)[C@H](c4ccc(O)cc4)O5)c3[C@@H]2c2cc(O)cc(O)c2)cc1 [(−)-vitisin B],activity of the human SIRT1 enzyme,[1],inhibit the activity
"O=c1cc(N2CCOCC2)oc2c(-c3ccccc3)cccc12 [LY294002, reference compound]",cell viability,"[2]; inhibitor 20 μM, 24 h",decreased cell viability
"COc1cccc(-c2cc(=O)c3ccccc3o2)c1N [PD98059, reference compound]",cell viability,"[2]; inhibitor 20 μM, 24 h",decreased cell viability
Oc1ccc([C@H]2c3c(O)cc(O)cc3[C@H]3c4c(cc(O)cc4[C@@H]2c2cc(/C=C/c4cc(O)cc5c4[C@H](c4cc(O)cc(O)c4)[C@@H](c4ccc(O)cc4)O5)ccc2O)O[C@@H]3c2ccc(O)cc2)cc1 [vitisin A],activity of the human SIRT1 enzyme,[1],inhibit the activity
"Oc1ccc([C@H]2Oc3cc(O)cc4c3[C@@H]2c2cc(O)cc3c2[C@@H](c2cc(O)cc5c2[C@@H]4[C@H](c2ccc(O)cc2)O5)[C@H](c2ccc(O)cc2)O3)cc1 [α-viniferin, α-Viniferin]",TGF-induced vimentin expression,[3],inhibit TGF-induced vimentin expression
same,apoptotic cells (early + late apoptotic cells),[4]; 5 μM,7.0%
same,apoptotic cells (early + late apoptotic cells),[4]; 10 μM,8.3%
same,apoptotic cells (early + late apoptotic cells),[4]; 20 μM,22.3%
same,apoptotic cells (early + late apoptotic cells),[4]; 30 μM,35.0%
same,"liver or kidney function (serum AST, CPK, LDH, creatinine)",[5],no negative impact
same,cell viability,"[2]; low doses 10–20 μM, 24, 48, 72 h",inhibited cell viability in a dose- and time-dependent manner
same,AIF translocation to the nucleus,[6],translocated to the nucleus
same,DNA fragmentation,[6],caused DNA fragmentation
same,apoptosis,[7],induce apoptosis
same,apoptosis,[8],induce apoptosis
same,epithelial mesenchymal transition (EMT),[9],inhibit epithelial mesenchymal transition
same,apoptotic cells in tumor tissue (TUNEL staining),"[10]; 5 mg/kg i.p., five times every week, four weeks",increased numbers of apoptotic cells
same,tumor volume,[10]; [14],more significant reduction
same,tumor weight,[10]; [14],more significant reduction
same,vimentin expression in tumor (IHC),[10]; [14],reduced
same,tumor growth,"[10]; 5 mg/kg, i.p., five days/week",suppression of tumor growth
same,protein expression level of SIRT1,[11],decreased the protein expression levels
same,protein expression level of vimentin,[11],decreased the protein expression levels
same,protein expression of activated caspase-3,[11],increased the protein expression
same,protein expression of cleaved PARP,[11],increased the protein expression
same,AKT phosphorylation,[11]; normalized to AKT,decreased the protein expression levels
same,apoptosis,[12],induce apoptosis
Oc1ccc(/C=C/c2cc(O)cc3c2[C@@H](c2cc(O)cc(O)c2)[C@H](c2ccc(O)cc2)O3)cc1 [ε-viniferin],anti-proliferative effect,[2]; 20 μM,did not exhibit potent anti-proliferative effects
same,anti-proliferative effect,[2]; higher concentrations (above 20 μM),did demonstrate such effects
same,cell viability,[13],inhibited A549 cell viability
(+)-hopeaphenol,activity of the human SIRT1 enzyme,[1],inhibit the activity
